This assay relates to cytokine and chemokine release in human peripheral blood mononuclear cells (hPBMCs). Description: Luminex multiplex, 30 cytokines and chemokines, LPS stimulated hPBMCs, main study (Example 8, Study 1), whole panel. Format: cell-based. The settings on record: for LPS-induced cytokine/chemokine levels, whole panel (in words): LPS 5 ug/mL 24 hrs, up to 500 nM. On the procedure:
Human PBMCs frozen in a cryopreserve was thawed, washed with Hank's Balanced Salt Solution containing 10% Fetal bovine serum, and seeded onto a 24-well plate at a density of 1×10^6 cells/well with culture RPMI media containing 10% Fetal bovine serum in growth media in a 24 well plate for 12, 24, and 48 hrs and maintained at 37° C. in an atmosphere of 95% air and 5% CO2.
Human PBMCs were pretreated with YY-101, YDE-011, YDE-043 or reference compound; Xiidra® at various concentration (ranging from […] to 500 nM) for 2 h before stimulation. An equal volume of 0.5% DMSO was used as a vehicle control. Then, the cells were treated with LPS at 5 ug/ml, which was selected based on the pilot study. The supernatants from treated cells were harvested at 24 h and placed in a 96 well for Luminex cytokine & chemokine profiling using a Luminex 200 multiplex assay (Luminex; R&D system, USA).
The main study arm with triplicate wells per group in a 24-well plate: • 1. Blank • 2. PBMC: 0.5% DMSO • 3. PBMC+LPS (5 ug/ml) • 4. PBMC+YY-101 500 nM • 5. PBMC+YY-101 50 nM • 6. PBMC+YY-101 5 nM • 7. PBMC+YY-101 0.5 nM • 8. PBMC+LPS (5 ug/ml)+Xiidra® 500 nM • 9. PBMC+LPS (5 ug/ml)+Xiidra® 50 nM • 10. PBMC+LPS (5 ug/ml)+Xiidra® 5 nM • 11. PBMC+LPS (5 ug/ml)+Xiidra® 0.5 nM • 12. PBMC+LPS (5 ug/ml)+Xiidra® 0.05 nM • 13. PBMC+LPS (5 ug/ml)+Xiidra® 0.005 nM • 14. PBMC+LPS (5 ug/ml)+YY-101 500 nM • 15. PBMC+LPS (5 ug/ml)+YY-101 50 nM • 16. PBMC+LPS (5 ug/ml)+YY-101 5 nM • 17. PBMC+LPS (5 ug/ml)+YY-101 0.5 nM • 18. PBMC+LPS (5 ug/ml)+YY-101 0.05 nM • 19. PBMC+LPS (5 ug/ml)+YY-101 0.005 nM • 20. PBMC+LPS (5 ug/ml)+YDE-011 500 nM • 21. PBMC+LPS (5 ug/ml)+YDE-011 50 nM • 22. PBMC+LPS (5 ug/ml)+YDE-011 5 nM • 23. PBMC+LPS (5 ug/ml)+YDE-011 0.5 nM • 24. PBMC+LPS (5 ug/ml)+YDE-011 0.05 nM • 25. PBMC+LPS (5 ug/ml)+YDE-011 0.005 nM • 26. PBMC+LPS (5 ug/ml)+YDE-043 500 nM • 27. PBMC+LPS (5 ug/ml)+YDE-043 50 nM • 28. PBMC+LPS (5 ug/ml)+YDE-043 5 nM • 29. PBMC+LPS (5 ug/ml)+YDE-043 0.5 nM • 30. PBMC+LPS (5 ug/ml)+YDE-043 0.05 nM • 31. PBMC+LPS (5 ug/ml)+YDE-043 0.005 nM
Multiplex assay was used to measure 30 cytokines and chemokines. The 1:200 diluted cell supernatant and serial dilution of the standard were dispensed into a 96 well plate at 50 ul/well. Then, the pre-mixed cocktail of antibody-coated magnetic beads was dispensed at 50 ul/well and incubated at room temperature for 2 h in a horizontal orbital microplate shaker at 800±500 rpm. The beads were washed using a magnetic device to prevent loss. The biotin-antibody was dispensed in 50 ul of each well and incubated at room temperature for 1 h in a shaker at 800±500 rpm. […] The data was calculated with a standard five-parameter logistic nonlinear regression analysis of the data (xPonent software 4.2, USA). […]

The values that follow come from patent US20230146455A1, “TREATMENT OF INFLAMMATORY DISEASES WITH PEPTIDES AND PHARMACEUTICAL COMPOSITIONS” (Yuyu Pharma, Inc., priority 2020, published 2023).

Entries after “also recorded” stand apart in the source; their conditions may differ. Where a SMILES comes first, the peptide text is derived from it. [ ]: non-standard residue; d: D form. Hyp = O=C(O)[C@@H]1C[C@@H](O)CN1

As for `CC(C)C[C@H](NC(=O)CNC(=O)[C@H](CC(C)C)NC(=O)[C@H](CCC(N)=O)NC(=O)CNC(=O)[C@@H]1C[C@@H](O)CN1)C(=O)N[C@@H](C)C(=O)NCC(=O)N1CCC[C@H]1C(=O)N[C@@H](CCCCN)C(=O)O` [YDE-011] (H-[Hyp]GQLGLAGPK-OH), the “LPS-induced cytokine/chemokine levels, whole panel (in words)” value (“LPS-induced cytokine/chemokine levels” for short) is “potently and significantly reduced pro-inflammatory cytokine/chemokine production”.
Turning to `CC(C)C[C@H](NC(=O)[C@H](CCC(N)=O)NC(=O)CNC(=O)[C@@H]1C[C@@H](O)CN1)C(=O)NCC(=O)O` [YDE-043] (H-[Hyp]GQLG-OH; N-terminus and C-terminus assumed), the “LPS-induced cytokine/chemokine levels” value is “more effectively lowered cytokine and chemokine production; also recorded: potently and significantly reduced pro-inflammatory cytokine/chemokine production”.
In the case of `CC(C)C[C@H](NC(=O)CNC(=O)[C@H](CC(=O)O)NC(=O)[C@H](CCC(N)=O)NC(=O)CNC(=O)[C@@H]1C[C@@H](O)CN1)C(=O)N[C@@H](C)C(=O)NCC(=O)N1CCC[C@H]1C(=O)N[C@@H](CCCCN)C(=O)O` [YY-101] (H-[Hyp]GQDGLAGPK-OH; N-terminus and C-terminus assumed), the “LPS-induced cytokine/chemokine levels” value was “potently and significantly reduced pro-inflammatory cytokine/chemokine production”. The “basal levels of cytokine production (in words)” value (no LPS) is “didn't affect the basal levels of cytokine production”.
